According to US12667546B2, “Methods for manipulating cell state transitions in cancer” (AGENCY FOR SCIENCE, TECHNOLOGY AND RESEARCH, priority 2018, dated 2026):
“Also recorded” adds a separate entry of the source.

What was measured:
[1] = system: NAMEC8-Ras; test: Tumor formation of pre-treated NAMEC8-Ras injected subcutaneously; type: in vivo, NSG mice; conditions: pre-treated cells, 11 weeks
[2] = system: NAMEC8; test: Expression of EMT and lineage markers (qRT-PCR, immunoblot, immunofluorescence) in NAMEC8; type: cell-based, human
Description: (§1) Cells were rinsed twice in ice-cold PBS. Total RNA was extracted using Trizol (Invitrogen) and column-purified with RNeasy kits (Qiagen). cDNA synthesis was performed with 500 ng of total RNA at 37° C. for 2 h using the SuperScript III First-Strand Synthesis System (Thermo Fisher Scientific), and subsequently diluted 5-fold. mRNA levels were measured with gene-specific primers listed below using the ABI Prism 7900HT Sequence Detection System 2.2 (Applied Biosystems). Results were normalized to GAPDH and analyzed using SDS 2.2 software.
(§2) Cells were harvested and scraped from culture dishes in ice-cold PBS. They were then centrifuged at 12000 rpm for 5 min at 4° C. The pellets were then snap frozen in liquid nitrogen or lysed in ice-cold RIPA lysis buffer (Thermo Scientific) and left on ice for 30 min. Subsequently, the lysates were centrifuged at 12000 rpm for 10 min at 4° C. The supernatants were then aspirated and placed in fresh tubes. Protein concentrations were determined using Coomaisse Blue. 50-80 μg total protein was mixed with NuPAGE™ LDS sample buffer and heated at 70° C. for 10 min. Samples were loaded into NuPAGE™ 4-12% Bis-Tris gels (precast polyacrylamide gel; Invitrogen™). Gel electrophoresis was done at 200V for 1.5 h and then blotted onto nitrocellulose membranes (Trans-Blot Turbo™ transfer pack; Bio-Rad). The membranes were blocked with 5% skimmed milk in Tris-buffered saline (TBS; 1st BASE) with 0.1% Tween-20 (Santa Cruz), and then incubated with primary antibodies overnight at 4° C. Thereafter, the membranes were incubated with a horseradish peroxidase (HRP)-conjugated secondary antibody at room temperature for one hour. Finally, the immunoreactive proteins were visualized by using an enhanced chemiluminescent (ECL) reagent (Thermo Scientific, 34075) with the Chemidoc™ Imager (Bio-Rad, 17001401).
Cell cultures were fixed in 4% paraformaldehyde and permeabilized with 0.25% Triton X-100, followed by blocking with 1% bovine serum albumin in PBST. Cells were incubated in specific primary antibodies, followed by the appropriate secondary antibodies conjugated with Alexa Fluor-488 or -594 (Molecular Probes). Cell nuclei were then stained with DAPI and then viewed and imaged with an Axio Observer D1 epifluorescence microscope with a built-in AxioCamMR3 camera (Zeiss), using the optimal filters and 100-200× magnifications.

[3] = system: H3K14ac, H3K18ac and H3K27ac in NAMEC8; test: Immunoblot of histone acetylation marks; type: cell-based, human
Description: as §2

[4] = system: SUM159; test: Flow cytometry of CD44 and CD24, SUM159; type: cell-based, human
Description: (§3) Cells were harvested as per FACS and resuspended in 100 μl of solution containing CD24-PE and CD44-APC (BD-Biosciences) antibodies diluted in 2% FBS in PBS (1:40 dilution). Cells were stained for 45 min with vortexing every 10 min to ensure even staining. After antibody incubation, cells were washed once and resuspended in 300 μl 2% FBS in PBS. Cells were then filtered through a 40 μm strainer and analyzed on BD LSR Fortessa X-20 Cell Analyzer.

[5] = system: NAMEC8; test: Flow cytometry of CD44 and CD24, NAMEC8; type: cell-based, human
Description: as §3

[6] = system: SUM159; test: Mammosphere assay, SUM159; type: cell-based, human
Description: (§4) For mammosphere culture, cells were seeded onto 96-well ultralow-adherence plates at 700 cells/well in Mammocult medium (Stem Cell Technologies) supplemented with 4 μg/ml heparin, 0.5 μg/ml hydrocortisone and 1% methylcellulose. Spheres (>100 μm) were counted at 7-10 days later.

[7] = system: SUM159; test: Expression of EMT and lineage markers in SUM159; type: cell-based, human
Description: as §1
Cells were harvested and scraped from culture dishes in ice-cold PBS. They were then centrifuged at 12000 rpm for 5 min at 4° C. The pellets were then snap frozen in liquid nitrogen or lysed in ice-cold RIPA lysis buffer (Thermo Scientific) and left on ice for 30 min. Subsequently, the lysates were centrifuged at 12000 rpm for 10 min at 4° C. The supernatants were then aspirated and placed in fresh tubes. Protein concentrations were determined using Coomaisse Blue. 50-80 μg total protein was mixed with NuPAGE™ LDS sample buffer and heated at 70° C. for 10 min. Samples were loaded into NuPAGE™ 4-12% Bis-Tris gels (precast polyacrylamide gel; Invitrogen™). Gel electrophoresis was done at 200V for 1.5 h and then blotted onto nitrocellulose membranes (Trans-Blot Turbo™ transfer pack; Bio-Rad). […]

[8] = system: NAMEC8; test: Mammosphere assay, NAMEC8; type: cell-based, human; conditions: NAMEC8, pre-treated cells
Description: as §4

[9] = system: NAMEC8; test: Cell morphology of treated NAMEC8; type: cell-based, human; conditions: bexarotene, TTNPB, SGC-CBP30, UNC0642, A-485 1 μM, LLY-283, GSK591 20 nM, C-IN-1 500 nM
Description: Human mammary epithelial cell lines (HMLE) were generated as described and immortalized using retroviral vectors to express the catalytic subunit of the human telomerase enzyme, hTERT and the SV-40 Large T antigen. NAMEC8 was generated as described. Briefly, HMLE cells were grown to 50% confluency, followed by differential trypsinization for 1 minute with 0.05% trypsin. Detached cells were carefully collected and re-plated at approximately 200 cells per well of a 24-well plate. Upon expansion, wells were screened for populations that were morphologically mesenchymal and can be stably propagated. Clonal and non-clonal NAMEC cell lines were generated. NAMEC8 is a non-clonal line derived from at least 200 mesenchymal cells. HMLE cells and NAMECs were maintained in MEGM (Lonza).

[10] = system: HMLE-Twist ER; test: 4-OHT-induced EMT in HMLE-Twist ER cells; type: cell-based, human
Description: (§5) HMLE-Twist-ER cells were generated as described. For EMT-induction, 100 nM of 4-hydroxytamoxifen in ethanol was added to the culture medium every 48 h to induce Twist expression. Control cells were treated with ethanol. MCF7-Slug+Sox9 cells were generated as previously described. HMLE-Zeb1 cells were generated by infection with FUW-Zeb1 and rTTA. Doxycycline was added to the culture medium every 48 h to induce Zeb1 expression. To generate tumorigenic cells from NAMEC8, cells were infected with pWZL-Blast-Ras. MCF7, MCF7-Ras, SUM159 were maintained as previously described. All cell cultures were maintained at 37° C. with 5% CO2.
as §1
(§6) Cells were harvested and scraped from culture dishes in ice-cold PBS. They were then centrifuged at 12000 rpm for 5 min at 4° C. […] Protein concentrations were determined using Coomaisse Blue. […]

[11] = system: MCF7-Slug+Sox9; test: Doxycycline-induced EMT in MCF7-Slug+Sox9 cells; type: cell-based, human
Description: as §5, §1, §6

[12] = system: MCF7-Slug+Sox9 tumors; test: Orthotopic MCF7-Slug+Sox9 EMT-induced metastasis model; type: in vivo, NSG mice; conditions: etomoxir 20 mg/kg per day i.p. plus doxycycline
Description: Orthotopic tumor transplantations of MCF7-Slug+Sox9 cells labeled with the tdTomato fluorescent protein were carried out as described previously. Briefly, 1×10^6 cells were resuspended in 30 μl of media containing 50% matrigel and injected into mammary fat pads of NSG mice. Mice were randomly divided into 3 groups (Control, DOX and Etomoxir+DOX). Mice were administered vehicle control (0.9% w/v NaCl) or etomoxir (20 mg/kg) via i.p. injections daily for 3 weeks. Doxycycline was then administered through drinking water for 2 weeks. Mice were sacrificed 10 weeks after doxycycline treatment was stopped and analyzed for lung metastases under a fluorescence microscope. The tumor sections were fixed overnight in 4% paraformaldehyde, immersed in 70% ethanol, and sent to the Advanced Molecular Pathlogy Lab, IMCB for paraffinization. For IF staining, slides were deparaffinized and rehydrated in PBS. The tissues were surrounded with a hydrophobic barrier using a barrier pen and blocked with the blocking buffer (1% bovine serum albumin; BSA, 1% horse serum and 0.2% Triton X-100 in PBS) for 1 hour. They were then washed with PBS and incubated in specific primary antibodies at 4° C. overnight. […] The fluorescence image analysis and the fluorescence overlay image were obtained with the Axio Vision Rel. […]

[13] = system: A549; test: TGFβ-induced EMT in lung cancer cell line; type: cell-based, human
Description: as §2

[14] = in vivo; cited from earlier work
[15] = system: SUM159; test: Fatty acid β-oxidation assay (rate of FAO); type: cell-based, human; conditions: etomoxir alone or together with bexarotene
Description: FAO rate was measured using the mitochondrial stress test on the XF96 analyzer (Seahorse Bioscience) according to manufacturer's instructions. Cells were seeded in 96well XF96 cell culture plates at a density of 9000 cells/well in complete media. Cells were then incubated with XF modified DMEM assay medium (Seahorse Bioscience) supplemented with 1 mM glutamine, 0.5 mM glucose, 1% FBS and 0.5 mM carnitine the next day for 18 h. On the day of the assay, cells were incubated with FAO assay medium (KHB: 111 mM NaCl, 4.7 mM KCl, 1.25 mM CaCl2), 2 mM MgSO4, 1.2 mM NaH2 PO4 supplemented with 2.5 mM glucose, 0.5 mM carnitine, 5 mM HEPES, adjusted to pH7.4) 45 min prior to the assay in a non-CO2 incubator. Seahorse XF Cell Mito Stress Test compounds (2 μM oligomycin, 2 μM FCCP, 2 μM rotenone). For inhibition of FAO, etomoxir (40 μM) was added 15 min prior to the assay. Just prior to starting the assay, XF Palmitate-BSA FAO substrate or BSA was added to the cells. Plate was then put into the XF96 analyzer and the XF Cell Mito Stress Test was run using the recommended protocol. Rate of FAO was calculated by the difference in maximal respiration when Palmitate-BSA FAO substrate was supplemented relative to BSA control.

Row | SMILES | tumor formation / tumor size [1] | expression of EMT and basal/luminal markers ([2]; transcript and protein) | histone acetylation marks [3] | CD44/CD24 surface expression [4] | CD44/CD24 surface expression [5] | mammosphere formation [6] | expression of EMT and lineage markers / epithelial features [7] | mammosphere formation [8] | cell morphology [9] | MET phenotype: induction and durability after drug withdrawal ([2]; drugs removed for at least seven days) | 4-OHT-induced EMT [10] | Slug+Sox9-induced EMT [11] | EMT markers in primary tumors (E-cadherin, Vimentin) [12] | TGFβ-induced EMT [13] | clinical outcome / toxicity [14] | FAO activity [15]
1 | COc1ccc(CCc2nc3cc(-c4c(C)noc4C)ccc3n2C[C@H](C)N2CCOCC2)cc1Cl [SGC-CBP30] | significantly smaller tumors after 11 weeks; also recorded: significantly reduced tumor formation in mice | significantly increased epithelial marker E-cadherin expression, as well as downregulated several mesenchymal markers, fibronectin, ZEB1 and SLUG; also recorded: most drastic change as compared to the other compounds | all the acetylation marks were decreased but to a lesser extent compared to A-485 treatment | slight decrease in CD44 expression, with a population of cells gaining the expression of CD24; also recorded: decreased CD44 expression and higher CD24 expression | population of cells with lower CD44 expression was observed; also recorded: Population of cells with decreased CD44 expression was observed | significant reduction in spheres formation and spheres size | increasing epithelial features and decreasing stemness in SUM159 | significantly reduce the size and number of spheres formed | obvious change in cell morphology from scattered, spindle- and fibroblastic-like cells, to tight clusters of epithelial islands; also recorded: resulted in epithelial-like morphology | – | – | – | – | – | – | –
2 | CCOC(=O)[C@@]1(CCCCCCOc2ccc(Cl)cc2)CO1 [etomoxir] | – | – | – | – | – | – | – | – | – | unable to do so | dramatically block this transition | blocked Slug+Sox9-induced EMT | retention of the epithelial features | blocking TGFβ-induced EMT | failed clinical trials due to liver toxicity | completely inhibited FAO activity
